Source: patent US11279728B2, “Broad spectrum viral inhibitor” (Albert Einstein College of Medicine, priority 2017, dated 2022)
Entries after “also recorded” stand apart in the source; their conditions may differ.

B1: Rattus norvegicus (residues 51-361) viperin (Rvip) (Rattus norvegicus) (protein)
chain: GEPKETQETHEDPGSAQPTTPVSVNYHFTRQCNYKCGFCFHTAKTSFVLPLEEAKRGLLLLKQAGMEKINFSGGEPFLQDRGEYLGKLVRFCKEELALPSVSIVSNGSLIRERWFKDYGDYLDILAISCDSFDEQVNVLIGRGQGKKNHVENLQKLRKWCRDYKVAFKINSVINRFNVDEDMNEHIKALSPVRWKVFQCLLIEGENSGEDALREAERFLISNEEFEAFLQRHKDVSCLVPESNQKMKDSYLILDEYMRFLNCTGGRKDPSRSILDVGVEEAIKFSGFDEKMFLKRGGKYVWSKADLKLDW

How the values were obtained:
Dengue virus (DV) RdRp = Dengue virus (DV) RdRp (Dengue virus type 2, UniProt P29990); assay: DV RdRp primed-template (primer extension) assay; assay type: biochemical; settings: for incorporation by DV RdRp on addition to the extended primer: direct incorporation, primed-template assay; for inhibition of DV RdRp-catalyzed production of full-length RNA: in competition with natural ribonucleotides, increasing concentrations (1, 10, 100 and 300 μM); for chain termination of DV RdRp-catalyzed RNA synthesis: once incorporated, only a 16-nt product (n+1)
Description: FIG. 6(A)-6(B): DV RdRp-catalyzed RNA synthesis is inhibited by ddhCTP by a chain termination mechanism. A. Schematic of primer extension assay for evaluating DV RdRp activity. Elongation complexes are first assembled with a trinucleotide primer, 5′-pGGC (SEQ ID NO:1), and 20-nt RNA template (SEQ ID NO:2) in the presence of ATP and GTP to elongate the trinucleotide primer (extended primer; SEQ ID NO:3)) and position the enzyme on the template (SEQ ID NO:2) such that guanosine is in the first templating position (underlined). In the presence of CTP and UTP, DV RdRp catalyzes RNA synthesis to the end of the template (SEQ ID NO:5). […] B. Increasing concentrations of ddhCTP (1, 10, 100 and 300 μM) inhibits DV RdRp-catalyzed RNA synthesis. Reaction products resolved by denaturing PAGE from DV RdRp-catalyzed nucleoside incorporation in the presence of increasing concentrations of either ddhCTP or 3′-dCTP. In the absence of ddhCTP and 3′-dCTP, DV RdRp efficiently catalyzes RNA synthesis to the end of the template creating a 20-nt RNA product (n+5, lanes 2 and 8).
Molecular target for ddhCTP: Viperin is induced by both DNA and RNA viruses (8,44-51). However, the presence of a 2′-OH on ddhCTP should almost certainly preclude efficient utilization by DNA polymerases, viral or cellular. (52) In contrast, 3′-deoxyribonucleotides are well known inhibitors of viral RNA-dependent RNA polymerases (RdRps)(53). Because Dengue virus (DV) and other members of the Flavivirus family are known to be sensitive to viperin, we used the DV RdRp as our model to examine the effect of ddhCTP on RdRp activity. First, it was asked if ddhCTP is a substrate for DV RdRp. To do so, a previously described primed-template assay was used. (54) A trinucleotide is used to prime RNA synthesis in the presence of two ^32P-labeled rNTPs, producing a 15-nt product that is referred to here as the extended primer. […] Addition of UTP to the CMP-incorporated RNA led to further extension to the end of template. […] A more stringent test of chain terminator effectiveness is whether it can directly compete with natural ribonucleotides. […] The reduced efficacy of ddhCTP must be caused by the double bond between the 3′ and 4′ positions, and the corresponding impact on the detailed ribose conformation, as this is the only difference between ddhCTP and 3′-dCTP. The phylogeny of viral RdRp genes classifies these enzymes into three supergroups (55), with Flaviviral RdRps belonging to supergroup II. To determine if the observations with DV RdRp extend to other supergroups, we evaluated a member of supergroup I. Specifically, the RdRp from human rhinovirus type C (HRV-C) was used, a member of the Picornavirus family. […] However, in the presence of other rNTPs, HRV-C RdRp was not inhibited by ddhCTP, even though it was inhibited by 3′-dCTP.
Addition of UTP to the CMP-incorporated RNA, as expected, led to further extension to the end of template.

Zika virus (ZIKV) RdRp = Zika virus (ZIKV) RdRp (Zika virus, UniProt Q32ZE1); assay: ZIKV RdRp inhibition by ddhCTP; assay type: biochemical
[1] = tested on: RdRp from human rhinovirus type C (HRV-C); assay: HRV-C RdRp incorporation and inhibition; assay type: biochemical; settings: for utilization by HRV-C RdRp: direct-incorporation experiments; for inhibition of HRV-C RdRp: in the presence of other rNTPs
poliovirus (PV) RdRp = poliovirus (PV) RdRp (Poliovirus type 1, UniProt P03300); assay type: biochemical
HCV RdRp = HCV RdRp (Hepatitis C virus genotype 1a, UniProt P27958); assay: HCV RdRp inhibition by ddhCTP
Vero cells = assay: Vero cell viability (ddhC cytotoxicity); assay type: cell-based; settings: incubation with 1 mM ddhC
[2] = tested on: ZIKV (MR766, PRVABC59, R103451); assay: ZIKV replication and release from Vero cells
[3] = target: T1, Rattus norvegicus (residues 51-361) viperin (Rvip) (Rattus norvegicus, UniProt O70600); assay: In vitro characterization of viperin (Rvip) activity: 5′dA formation / ddhCTP production; settings: 50 μM Rvip, 2 mM SAM, 1 mM nucleotide, 5 mM dithionite, 4 min
T1 sequence (O70600 51-360 limits assumed): B1 chain

[4] = substrate: Nc1ccn([C@@H]2O[C@H](COP(=O)(O)OP(=O)(O)OP(=O)(O)O)[C@@H](O)[C@H]2O)c(=O)n1; assay: purified protein, by the assay type; settings: other: CTP as substrate of Rvip, 37.0 °C

Dengue virus (DV) RdRp, sequence (P29990 2492-3391 limits assumed): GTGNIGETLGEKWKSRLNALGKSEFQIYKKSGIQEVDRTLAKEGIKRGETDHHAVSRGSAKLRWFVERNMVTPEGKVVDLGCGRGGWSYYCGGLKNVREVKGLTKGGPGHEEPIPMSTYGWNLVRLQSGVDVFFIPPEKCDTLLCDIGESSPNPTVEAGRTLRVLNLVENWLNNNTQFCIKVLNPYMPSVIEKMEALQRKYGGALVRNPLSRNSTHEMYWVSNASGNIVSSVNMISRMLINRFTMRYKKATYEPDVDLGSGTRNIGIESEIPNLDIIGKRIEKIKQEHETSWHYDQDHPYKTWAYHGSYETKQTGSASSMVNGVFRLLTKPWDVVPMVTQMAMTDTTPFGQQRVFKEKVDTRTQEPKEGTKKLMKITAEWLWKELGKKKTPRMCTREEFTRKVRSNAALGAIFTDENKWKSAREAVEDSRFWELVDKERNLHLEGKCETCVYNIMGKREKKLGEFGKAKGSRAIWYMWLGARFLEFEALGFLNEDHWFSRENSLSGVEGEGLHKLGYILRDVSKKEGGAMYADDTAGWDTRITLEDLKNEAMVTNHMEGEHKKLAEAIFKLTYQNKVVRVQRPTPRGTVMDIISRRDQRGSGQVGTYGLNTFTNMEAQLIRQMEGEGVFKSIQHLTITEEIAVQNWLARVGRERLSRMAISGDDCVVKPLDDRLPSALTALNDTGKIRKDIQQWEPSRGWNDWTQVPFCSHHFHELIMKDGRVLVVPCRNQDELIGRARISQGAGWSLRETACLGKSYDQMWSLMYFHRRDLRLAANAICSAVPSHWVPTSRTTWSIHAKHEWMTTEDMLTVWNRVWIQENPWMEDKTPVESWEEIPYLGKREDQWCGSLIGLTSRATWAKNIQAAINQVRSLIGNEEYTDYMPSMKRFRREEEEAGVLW
poliovirus (PV) RdRp, sequence (P03300 1749-2209 limits assumed): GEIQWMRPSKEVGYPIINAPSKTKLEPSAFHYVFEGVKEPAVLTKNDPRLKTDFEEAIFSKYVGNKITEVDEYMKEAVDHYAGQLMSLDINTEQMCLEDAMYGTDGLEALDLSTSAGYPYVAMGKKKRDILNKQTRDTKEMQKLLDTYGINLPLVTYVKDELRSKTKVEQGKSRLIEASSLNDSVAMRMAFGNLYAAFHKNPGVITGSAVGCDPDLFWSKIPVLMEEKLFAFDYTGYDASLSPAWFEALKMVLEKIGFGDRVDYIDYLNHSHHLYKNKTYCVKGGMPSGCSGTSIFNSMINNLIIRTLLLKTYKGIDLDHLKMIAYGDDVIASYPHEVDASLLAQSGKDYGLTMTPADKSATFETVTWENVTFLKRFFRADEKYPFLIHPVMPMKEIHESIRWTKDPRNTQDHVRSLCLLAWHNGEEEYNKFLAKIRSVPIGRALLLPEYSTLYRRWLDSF
Zika virus (ZIKV) RdRp, sequence (Q32ZE1 2517-3419): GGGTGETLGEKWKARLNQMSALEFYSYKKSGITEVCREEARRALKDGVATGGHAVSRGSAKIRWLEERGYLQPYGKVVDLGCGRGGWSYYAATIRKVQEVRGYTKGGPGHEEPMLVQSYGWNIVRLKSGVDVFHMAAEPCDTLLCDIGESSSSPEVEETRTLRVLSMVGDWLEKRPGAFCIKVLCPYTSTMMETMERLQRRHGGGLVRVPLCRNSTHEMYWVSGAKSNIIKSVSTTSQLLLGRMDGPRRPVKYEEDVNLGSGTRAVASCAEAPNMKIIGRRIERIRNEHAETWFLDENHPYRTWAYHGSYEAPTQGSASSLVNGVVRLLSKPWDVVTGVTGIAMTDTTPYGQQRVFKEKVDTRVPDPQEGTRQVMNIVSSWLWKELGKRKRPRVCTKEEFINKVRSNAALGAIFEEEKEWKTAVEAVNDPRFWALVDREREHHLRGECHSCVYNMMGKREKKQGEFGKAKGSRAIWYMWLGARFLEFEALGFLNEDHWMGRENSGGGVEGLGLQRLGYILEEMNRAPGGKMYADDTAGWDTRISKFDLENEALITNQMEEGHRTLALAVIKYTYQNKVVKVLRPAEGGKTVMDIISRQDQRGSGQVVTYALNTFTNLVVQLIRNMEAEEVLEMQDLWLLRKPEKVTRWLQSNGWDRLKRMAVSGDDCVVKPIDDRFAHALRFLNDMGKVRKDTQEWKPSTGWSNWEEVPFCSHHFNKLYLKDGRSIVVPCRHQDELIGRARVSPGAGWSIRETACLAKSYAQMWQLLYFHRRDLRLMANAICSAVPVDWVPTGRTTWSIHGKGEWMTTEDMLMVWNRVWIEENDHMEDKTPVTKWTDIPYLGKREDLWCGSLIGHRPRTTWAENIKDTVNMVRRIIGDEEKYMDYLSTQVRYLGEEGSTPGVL
HCV RdRp, sequence (P27958 2421-3011): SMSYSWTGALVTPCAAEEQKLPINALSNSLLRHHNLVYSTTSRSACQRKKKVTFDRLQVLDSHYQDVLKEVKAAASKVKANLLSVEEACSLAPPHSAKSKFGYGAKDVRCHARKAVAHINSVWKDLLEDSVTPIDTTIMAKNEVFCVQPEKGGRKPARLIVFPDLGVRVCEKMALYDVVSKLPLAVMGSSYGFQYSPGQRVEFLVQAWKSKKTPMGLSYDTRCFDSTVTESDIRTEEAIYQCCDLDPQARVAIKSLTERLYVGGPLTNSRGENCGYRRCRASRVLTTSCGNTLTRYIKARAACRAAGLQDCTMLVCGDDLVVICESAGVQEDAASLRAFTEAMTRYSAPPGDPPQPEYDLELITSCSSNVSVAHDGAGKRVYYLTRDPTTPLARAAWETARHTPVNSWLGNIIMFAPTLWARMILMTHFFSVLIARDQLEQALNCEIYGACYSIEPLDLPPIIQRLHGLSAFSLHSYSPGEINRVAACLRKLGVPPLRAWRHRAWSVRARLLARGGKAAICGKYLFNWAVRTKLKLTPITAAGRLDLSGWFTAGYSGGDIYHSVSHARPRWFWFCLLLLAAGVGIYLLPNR

Molecule	incorporation by DV RdRp on addition to the extended primer (Dengue virus (DV) RdRp)	inhibition of DV RdRp-catalyzed production of full-length RNA (Dengue virus (DV) RdRp)	chain termination of DV RdRp-catalyzed RNA synthesis (Dengue virus (DV) RdRp)	utilization by HRV-C RdRp [1]	inhibition of HRV-C RdRp [1]	inhibition of PV RdRp (poliovirus (PV) RdRp)	also measured
Nc1ccn([C@@H]2OC(COP(=O)(O)OP(=O)(O)OP(=O)(O)O)=C[C@@H]2O)c(=O)n1 (stereo in doubt) [ddhCTP, 3′-deoxy-3′,4′-didehydro-cytidine triphosphate]	led to incorporation	inhibits; also recorded: inhibited production of full-length RNA	terminate RNA synthesis	utilization	not inhibited; also recorded: poorly inhibited	poorly inhibited	inhibition by ddhCTP utilization and chain termination (Zika virus (ZIKV) RdRp): susceptible to inhibition; inhibition by ddhCTP utilization and chain termination (HCV RdRp): susceptible to inhibition
Nc1ccn([C@@H]2O[C@H](COP(=O)(O)OP(=O)(O)OP(=O)(O)O)C[C@H]2O)c(=O)n1 [3′-dCTP, reference compound]	led to incorporation	inhibited production of full-length RNA	terminate RNA synthesis	utilization	inhibited	inhibited	efficacy of inhibition of full-length RNA, 3′-dCTP compared with ddhCTP (Dengue virus (DV) RdRp; compare lane 10 to lane 4 in FIG. 6B): greater efficacy than ddhCTP
Nc1ccn([C@@H]2OC(CO)=C[C@H]2O)c(=O)n1 [ddhC, 3′-deoxy-3′,4′-didehydro-cytidine]							Vero cell viability (Vero cells): did not alter Vero cell viability; reduction in virus titer ([2]; ZIKV MR766, MOI of 0.1, all time points, Vero cells): 50-200 fold; reduction in virus titer ([2]; ZIKV MR766, MOI of 1.0, Vero cells): 5-50 fold; sensitivity to ddhC treatment ([2]; ZIKV PRVABC59 (Puerto Rico), Vero cells): analogous sensitivities; sensitivity to ddhC treatment ([2]; ZIKV R103451 (Honduras), Vero cells): analogous sensitivities
Nc1ccn([C@@H]2O[C@H](COP(=O)(O)OP(=O)(O)OP(=O)(O)O)[C@@H](O)[C@H]2O)c(=O)n1 [CTP, cytidine triphosphate]							activation of 5′dA production relative to protein alone [3]: 30 fold
B1							Km [4]: 183 ± 28 µM; kcat ([4]; b22 prints minutes-1): 0.00308 ± 0.00012 s⁻¹
